Positions count from the first letter of the chain named. Values joined by “and” are separate entries in the source; they are usually repeats but may differ in a detail not shown here. Equal entries are not always repeated. Where two headings read alike, the source gives them in different places.
Key:
Assay type in all cases: biochemical
USP28Δtip L264F = target: T1, USP28Δtip L264F (Homo sapiens, UniProt Q96RU2, INS458SGSG/L264F); assay: Ub-Rho110 dose–response assay, USP28Δtip L264F; conditions: for IC50: USP28 - L264F
T1 sequence (Q96RU2 with tags, fused parts or gaps L264F/INS458SGSG): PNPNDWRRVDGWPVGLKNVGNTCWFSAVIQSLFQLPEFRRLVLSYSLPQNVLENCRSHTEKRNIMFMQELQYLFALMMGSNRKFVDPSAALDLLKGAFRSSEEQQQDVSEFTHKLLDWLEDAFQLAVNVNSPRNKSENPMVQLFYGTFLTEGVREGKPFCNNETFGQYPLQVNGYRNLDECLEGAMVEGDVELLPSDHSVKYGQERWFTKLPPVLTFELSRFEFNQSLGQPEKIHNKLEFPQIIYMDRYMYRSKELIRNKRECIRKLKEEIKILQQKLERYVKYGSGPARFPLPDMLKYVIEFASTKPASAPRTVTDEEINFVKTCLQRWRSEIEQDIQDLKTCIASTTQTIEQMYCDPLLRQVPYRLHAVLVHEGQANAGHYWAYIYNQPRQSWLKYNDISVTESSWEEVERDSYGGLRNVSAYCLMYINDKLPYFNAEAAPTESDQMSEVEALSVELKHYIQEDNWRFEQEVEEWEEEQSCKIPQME

USP28Δtip Q315A = target: T2, USP28Δtip Q315A (Homo sapiens, UniProt Q96RU2, INS458SGSG/Q315A); assay: Ub-Rho110 dose–response assay, USP28Δtip Q315A; conditions: for IC50: USP28 - Q315A
T2 sequence (Q96RU2 with tags, fused parts or gaps Q315A/INS458SGSG): T1 sequence (Q96RU2 with tags, fused parts or gaps L264F/INS458SGSG)

USP28Δtip E366Q = target: T3, USP28Δtip E366Q (Homo sapiens, UniProt Q96RU2, E366Q/INS458SGSG); assay: Ub-Rho110 dose–response assay, USP28Δtip E366Q; conditions: for IC50: USP28 - E366Q
T3 sequence (Q96RU2 with tags, fused parts or gaps E366Q/INS458SGSG): T1 sequence (Q96RU2 with tags, fused parts or gaps L264F/INS458SGSG)

USP25Δtip H268A = target: T4, USP25Δtip H268A (Homo sapiens, UniProt Q9UHP3, DEL465-537/H268A/INS464GSGSGS); assay: Ub-Rho110 dose–response assay, USP25Δtip H268A
T4 construct: 6xHis or thioredoxin-6xHis (N, cleaved yes); made in house; host or cells: E. coli BL21star (DE3)
T4 sequence (Q9UHP3 with tags, fused parts or gaps H268A/DEL465-477/P478G/DEL482-535/A536G/P537S limits assumed): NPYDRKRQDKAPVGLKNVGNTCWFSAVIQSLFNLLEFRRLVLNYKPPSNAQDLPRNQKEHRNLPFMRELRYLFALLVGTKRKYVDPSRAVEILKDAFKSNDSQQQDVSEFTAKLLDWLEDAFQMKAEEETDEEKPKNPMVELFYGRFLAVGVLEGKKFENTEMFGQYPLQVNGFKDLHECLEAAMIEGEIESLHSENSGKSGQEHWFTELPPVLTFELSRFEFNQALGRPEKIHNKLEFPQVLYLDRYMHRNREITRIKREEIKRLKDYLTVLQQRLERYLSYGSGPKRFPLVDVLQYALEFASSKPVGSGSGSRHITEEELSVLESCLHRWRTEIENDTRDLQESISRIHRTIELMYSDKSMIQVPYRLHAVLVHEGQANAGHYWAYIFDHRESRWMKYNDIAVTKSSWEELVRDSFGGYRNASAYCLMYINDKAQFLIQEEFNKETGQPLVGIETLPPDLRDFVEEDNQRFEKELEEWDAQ

USP25Δtip L271F = target: T5, USP25Δtip L271F (Homo sapiens, UniProt Q9UHP3, DEL465-537/INS464GSGSGS/L271F); assay: Ub-Rho110 dose–response assay, USP25Δtip L271F
T5 construct: 6xHis or thioredoxin-6xHis (N, cleaved yes); made in house; host or cells: E. coli BL21star (DE3)
T5 sequence (Q9UHP3 with tags, fused parts or gaps L271F/DEL465-477/P478G/DEL482-535/A536G/P537S limits assumed): T4 sequence (Q9UHP3 with tags, fused parts or gaps H268A/DEL465-477/P478G/DEL482-535/A536G/P537S limits assumed) with A112H, L115F

USP25Δtip Q322A = target: T6, USP25Δtip Q322A (Homo sapiens, UniProt Q9UHP3, DEL465-537/INS464GSGSGS/Q322A); assay: Ub-Rho110 dose–response assay, USP25Δtip Q322A
T6 construct: 6xHis or thioredoxin-6xHis (N, cleaved yes); made in house; host or cells: E. coli BL21star (DE3)
T6 sequence (Q9UHP3 with tags, fused parts or gaps Q322A/DEL465-477/P478G/DEL482-535/A536G/P537S limits assumed): T4 sequence (Q9UHP3 with tags, fused parts or gaps H268A/DEL465-477/P478G/DEL482-535/A536G/P537S limits assumed) with A112H, Q166A

[1] = mean of replicates, read-out: IC50, mean and SD
[2] = single replicates, read-out: IC50 of each replicate curve (unlabelled line above mean and SD)
[3] = read-out: relative inhibition [%] - USP28 - L264F
[4] = read-out: relative inhibition [%] - USP28 - Q315A
[5] = read-out: relative inhibition [%] - USP28 - E366Q

Cc1ccc2c(N)c(C(=O)NC3CCc4cc(N5CC6CCC(C5)N6)ccc4C3)sc2n1 (centres unmarked) [FT206]
t-test vs. USP28 WT control - L264F (USP28Δtip L264F): 2.664E-04
IC50 (USP28Δtip L264F; [1]): 1.27 µM
IC50 (USP28Δtip L264F; [2]): 1.62 µM and 1.31 µM and 1.61 µM and 0.793 µM and 1.12 µM and 1.15 µM
inhibition at 11.11 µM (USP28Δtip L264F; [3]): 90.1%
inhibition at 33.33 µM (USP28Δtip L264F; [3]): 95.6%
inhibition at 100 µM (USP28Δtip L264F; [3]): 97.8%
inhibition at […] (USP28Δtip L264F; [3]): 74.2% and 44.5%
t-test vs. USP28 WT control - Q315A (USP28Δtip Q315A): 6.868E-03
IC50 (USP28Δtip Q315A; [1]): 0.36 µM
IC50 (USP28Δtip Q315A; [2]): 0.492 µM and 0.375 µM and 0.444 µM and 0.267 µM and 0.246 µM
inhibition at 11.11 µM (USP28Δtip Q315A; [4]): 96.4%
inhibition at 33.33 µM (USP28Δtip Q315A; [4]): 97.8%
inhibition at 100 µM (USP28Δtip Q315A; [4]): 98.7%
inhibition at […] (USP28Δtip Q315A; [4]): 92.1% and 78.6% and 44.2%
t-test vs. USP28 WT control - E366Q (USP28Δtip E366Q): 3.570E-04
IC50 (USP28Δtip E366Q; [1]): 17.2 µM
IC50 (USP28Δtip E366Q; [2]): 21.3 µM and 17.6 µM and 14.7 µM and 24.4 µM and 11.5 µM and 13.7 µM
inhibition at 11.11 µM (USP28Δtip E366Q; [5]): 34.7%
inhibition at 33.33 µM (USP28Δtip E366Q; [5]): 57.1%
inhibition at 100 µM (USP28Δtip E366Q; [5]): 78.7%
t-test vs. USP25 WT control - H268A (USP25Δtip H268A; p value, inhibitor IC50 on USP25 H268A compared with USP25 WT): 1.749E-05
inhibition at 11.11 µM (USP25Δtip H268A; read-out: relative inhibition [%] - USP25 - H268A): 29.7%
inhibition at 33.33 µM (USP25Δtip H268A; read-out: relative inhibition [%] - USP25 - H268A, inhibitor 33.33 µM, single replicates): 55.5%
inhibition at 100 µM (USP25Δtip H268A; read-out: relative inhibition [%] - USP25 - H268A, inhibitor 100.00 µM, single replicates): 78.2%
t-test vs. USP25 WT control - L271F (USP25Δtip L271F; p value, inhibitor IC50 on USP25 L271F compared with USP25 WT): 4.479E-03
inhibition at 11.11 µM (USP25Δtip L271F; read-out: relative inhibition [%] - USP25 - L271F, inhibitor 11.11 µM, single replicates): 90.1%
inhibition at 33.33 µM (USP25Δtip L271F; read-out: relative inhibition [%] - USP25 - L271F, inhibitor 33.33 µM, single replicates): 95.6%
inhibition at 100 µM (USP25Δtip L271F; read-out: relative inhibition [%] - USP25 - L271F, inhibitor 100.00 µM, single replicates): 100%
inhibition at 100 µM (USP25Δtip Q322A; inhibitor 100.00 µM, single replicates, read-out: relative inhibition [%] - USP25 - Q322A): 94%
t-test vs. USP25 WT control - Q322A (USP25Δtip Q322A; p value, inhibitor IC50 on USP25 Q322A compared with USP25 WT): 8.787E-03
inhibition at 11.11 µM (USP25Δtip Q322A; read-out: relative inhibition [%] - USP25 - Q322A, inhibitor 11.11 µM, single replicates): 85.2%
inhibition at 33.33 µM (USP25Δtip Q322A; read-out: relative inhibition [%] - USP25 - Q322A, inhibitor 33.33 µM, single replicates): 88.7%

From paper PMC11239673, “Structural basis for the bi-specificity of USP25 and USP28 inhibitors” (EMBO Reports, 2024)
